The values below come from ChEMBL document CHEMBL1201862, “PubChem BioAssay data set” (2004).

Test systems include HOP-92; HT-29; IGROV-1; KM12; LXFL 529; NCI-H23; NCI-H522; OVCAR-4; RXF 393; SF-268; SF-539; SK-MEL-28; SK-MEL-5; SNB-19; SNB-78; UACC-257; HCT-116; OVCAR-3.
Holding throughout (test): NCI tumour cell line growth inhibition, 48 h

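Interpolation was linear, between the two tested concentrations surrounding the appropriate level; five concentrations were tested over 48 hours in 96-well plates. At the GI50, growth is halved.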 The source made the active and inactive calls. Cut-off read from the data, not from the text of the source: active = GI50 up to about 1.1 µM and inactive = higher. Some results are limits rather than exact numbers.

Take `O=c1[nH]c(=O)n(C2CC(O)C(CO)O2)cc1/C=C/Br` (centres undefined): the GI50 in the experiment with HOP-92, in the experiment with HT-29, in the experiment on IGROV-1, with KM12, with LXFL 529 and with NCI-H23 was > 100 µM (inactive) each time. Further, the GI50 in the experiment with NCI-H522, with OVCAR-4, with RXF 393, in the experiment on SF-268, with SF-539 and in the experiment on SK-MEL-28 was > 100 µM (inactive) in each case. For the same molecule, the GI50 with SK-MEL-5, with SNB-19, in the experiment on SNB-78 and with UACC-257 was > 100 µM (inactive) throughout.

`O=C(Nc1c(O)[nH]c(=S)[nH]c1=O)c1ccccn1`: the GI50 in the experiment with HCT-116 is > 100 µM (inactive); in the experiment with HOP-92, 39.1 µM (inactive); with HT-29 it was > 100 µM (inactive); in the experiment with IGROV-1 it was > 100 µM (inactive); with KM12 it was > 100 µM (inactive); in the experiment with LXFL 529, > 100 µM (inactive). Besides, the GI50 in the experiment with NCI-H23, with NCI-H522, with OVCAR-3, in the experiment with OVCAR-4, in the experiment on SF-268 and in the experiment with SF-539 was > 100 µM (inactive) each time. In addition, the GI50 in the experiment on SK-MEL-28, with SK-MEL-5, with SNB-19, in the experiment on SNB-78 and with UACC-257 was > 100 µM (inactive) in each case.

As to `O=C(c1c(O)cc(O)cc1O)C1Cc2ccccc21` (centres undefined), the GI50 was 86.5 µM (inactive) in the experiment with HCT-116; 19.1 µM (inactive) in the experiment on HOP-92; > 100 µM (inactive) in the experiment on HT-29; > 100 µM (inactive) in the experiment with IGROV-1; > 100 µM (inactive) in the experiment with KM12; > 100 µM (inactive) in the experiment with LXFL 529. The GI50 in the experiment on NCI-H522 is 10.3 µM (inactive); in the experiment with OVCAR-4, 30.4 µM (inactive); in the experiment with RXF 393 it was 76 µM (inactive); with SF-268, 53.1 µM (inactive); in the experiment on SF-539 it was 32.2 µM (inactive); in the experiment on SK-MEL-5, > 100 µM (inactive). The GI50 with SNB-19 was 64 µM (inactive); with SNB-78 it was 58.7 µM (inactive); in the experiment on UACC-257, > 100 µM (inactive).

Turning to `O=C1CCC2(c3ccc(Cl)cc3)Nc3ncccc3N12` (centres undefined), the GI50 in the experiment on HOP-92, with HT-29, in the experiment on IGROV-1, in the experiment on KM12, with LXFL 529 and in the experiment with NCI-H23 was > 100 µM (inactive) in each case. Also, the GI50 in the experiment on NCI-H522, in the experiment with OVCAR-3, with OVCAR-4, in the experiment with RXF 393, in the experiment with SF-268 and in the experiment on SF-539 was > 100 µM (inactive) throughout. The GI50 with SK-MEL-28 was > 100 µM (inactive); with SK-MEL-5, > 100 µM (inactive); in the experiment on SNB-78 it was 63 µM (inactive); in the experiment with UACC-257 it was > 100 µM (inactive).

As to `CC(C)(c1cn(Cc2ccccc2)c2ccccc12)c1cn(Cc2ccccc2)c2ccccc12`, the GI50 with HCT-116 was > 100 µM (inactive); in the experiment on HOP-92, 32.2 µM (inactive); in the experiment with HT-29, > 100 µM (inactive); in the experiment with IGROV-1, > 100 µM (inactive); with KM12 it was > 100 µM (inactive); with LXFL 529, > 100 µM (inactive). In addition, the GI50 in the experiment with NCI-H23 was > 100 µM (inactive); in the experiment on NCI-H522 it was 76.9 µM (inactive); with OVCAR-3 it was > 100 µM (inactive); in the experiment on OVCAR-4, > 100 µM (inactive); in the experiment with SF-268 it was > 100 µM (inactive); with SF-539 it was > 100 µM (inactive). In addition, the GI50 in the experiment on SK-MEL-5 and in the experiment on SNB-78 was > 100 µM (inactive) in each case.

As to `C[N+]1(C)CCCC1C(=O)[O-]` (centres undefined), the GI50 in the experiment with HCT-116, with HOP-92, in the experiment on HT-29, with IGROV-1, in the experiment with KM12 and in the experiment on LXFL 529 was > 100 µM (inactive) in each case. Moreover, the GI50 in the experiment with NCI-H23, in the experiment on NCI-H522, with OVCAR-3, with OVCAR-4, in the experiment on RXF 393 and in the experiment on SF-268 was > 100 µM (inactive) throughout. Moreover, the GI50 in the experiment on SF-539, in the experiment on SK-MEL-28, in the experiment with SNB-19, with SNB-78 and with UACC-257 was > 100 µM (inactive) each time.

Take `CC(=O)OC1(C#N)CC2OC1C1C2N1C(=O)OC(C)(C)C` (centres undefined): the GI50 in the experiment with HCT-116, in the experiment on HOP-92, in the experiment with IGROV-1, with LXFL 529, with NCI-H23 and with NCI-H522 was > 100 µM (inactive) each time. Further, the GI50 in the experiment on OVCAR-4, with RXF 393, in the experiment with SF-268, in the experiment with SF-539, in the experiment with SK-MEL-28 and in the experiment on SK-MEL-5 was > 100 µM (inactive) in each case. For the same molecule, the GI50 in the experiment with SNB-19 and with SNB-78 was > 100 µM (inactive) throughout.

Turning to `Nc1ncnc2sc(Nc3ccccc3)nc12`, the GI50 with HOP-92 is 77.1 µM (inactive); in the experiment with HT-29 it was 7.28 µM (inactive); with IGROV-1, 32.2 µM (inactive); in the experiment on KM12 it was > 100 µM (inactive); with LXFL 529 it was > 100 µM (inactive); with NCI-H23 it was 48.3 µM (inactive). In addition, the GI50 is 28 µM (inactive) with NCI-H522; > 100 µM (inactive) in the experiment on OVCAR-3; 93.3 µM (inactive) with OVCAR-4; > 100 µM (inactive) in the experiment with SF-268; > 100 µM (inactive) in the experiment on SF-539; > 100 µM (inactive) with SK-MEL-28. Besides, the GI50 in the experiment with SNB-19, with SNB-78 and in the experiment with UACC-257 was > 100 µM (inactive) throughout.

On to `N#CC1CC2(CCN1C(=O)c1ccccc1)OCCO2` (centres undefined), for which the GI50 with HCT-116, in the experiment on HOP-92, with HT-29, with IGROV-1, in the experiment on KM12 and with LXFL 529 was > 100 µM (inactive) in each case. Also, the GI50 with NCI-H23 was > 100 µM (inactive); with NCI-H522, 0.308 µM (active); in the experiment on OVCAR-3, > 100 µM (inactive); in the experiment with OVCAR-4, > 100 µM (inactive); in the experiment with RXF 393 it was > 100 µM (inactive); with SF-268, > 100 µM (inactive). The GI50 in the experiment on SF-539, in the experiment with SK-MEL-5, in the experiment with SNB-19, in the experiment with SNB-78 and with UACC-257 was > 100 µM (inactive) throughout.

On to `COc1ccc2c3c1C(=O)CCCC3CO2` (centres undefined), for which the GI50 in the experiment with HOP-92, with HT-29, in the experiment on IGROV-1, in the experiment with KM12, in the experiment with LXFL 529 and in the experiment with NCI-H23 was > 100 µM (inactive) in each case. The GI50 with NCI-H522, in the experiment with OVCAR-3, in the experiment on OVCAR-4, in the experiment with RXF 393, in the experiment on SF-268 and in the experiment with SF-539 was > 100 µM (inactive) each time. Also, the GI50 with SK-MEL-28, in the experiment on SK-MEL-5, with SNB-19, in the experiment with SNB-78 and with UACC-257 was > 100 µM (inactive) throughout.

As for `CN(C)c1ccc(/C=c2/sc3nc(=O)c(-c4ccccc4NC(=O)C(F)(F)F)nn3c2=O)cc1`, the GI50 was 77.4 µM (inactive) with HOP-92; > 100 µM (inactive) in the experiment on HT-29; > 100 µM (inactive) in the experiment with IGROV-1; > 100 µM (inactive) with KM12; > 100 µM (inactive) with LXFL 529; 67.6 µM (inactive) in the experiment on NCI-H23. In addition, the GI50 in the experiment with NCI-H522, in the experiment with OVCAR-3, with OVCAR-4, in the experiment with RXF 393, with SF-268 and in the experiment on SF-539 was > 100 µM (inactive) each time. The GI50 in the experiment with SK-MEL-28, in the experiment with SK-MEL-5, with SNB-19 and in the experiment on SNB-78 was > 100 µM (inactive) each time.

Consider `Cc1c2cc[n+](C)cc2c(C)c2c1[nH]c1ccc(OCC(F)(F)F)cc12`, for which the GI50 was 3.95 µM (inactive) in the experiment on HCT-116; 2.43 µM (inactive) in the experiment on HOP-92; 2.28 µM (inactive) in the experiment with HT-29; 2.27 µM (inactive) in the experiment on IGROV-1; 2.53 µM (inactive) in the experiment on KM12; 0.501 µM (active) with LXFL 529. For the same molecule, the GI50 with NCI-H23 is 1.23 µM (inactive); with NCI-H522 it was 1.63 µM (inactive); with OVCAR-3, 2.59 µM (inactive); in the experiment on OVCAR-4 it was 2.45 µM (inactive); in the experiment on SF-268 it was 0.376 µM (active); in the experiment with SF-539, 1.25 µM (inactive). Further, the GI50 in the experiment with SK-MEL-5 is 1.55 µM (inactive); with SNB-19, 0.817 µM (active); in the experiment with SNB-78 it was 0.622 µM (active).
